{
  "source": "patent US10058097B2",
  "about": "“Methods to increase corn productivity” (Valent BioSciences Corporation, priority 2016, dated 2018)",
  "assay_type_in_all_cases": "in vivo",
  "key": {"corn plants": {"tested_on": "corn plants", "test": "Greenhouse study: growth of corn after V3 spray with GA3 or GB, nine days", "conditions": "non-stressed greenhouse; spray at V3; GA3 120 mg/liter, GB 3000 mg/liter; n = 7", "description": "In several of the following examples, corn was grown in greenhouse conditions, which are defined as follows. Seeds of a commercial hybrid variety were sown in Pro-Mix® BX (Pro-Mix is a registered trademark of Premier Horticulture Ltd.) with the addition of Osmocote (14-14-14) and gypsum in three-liter pots. Greenhouses were kept at 25±3° C. under a 16:8 hour photoperiod, with illumination at canopy level of ˜250 μmoles m^−2s^−1. Corn was typically fertigated with Peters 21-5-20+micronutrients, calcium ammonium nitrate and magnesium sulfate. Typical growth rates for corn under these conditions ranged from 4-5 cm/day.\nIn most greenhouse studies, spray applications were made. These applications were made in a track sprayer outfitted with a 4001E Teejet® nozzle (Teejet is available from and a registered trademark of Spraying Systems Co., Glendale Heights, Ill., USA) and applied at 40 psi. Although application volumes did vary between some studies, generally, 30 gallons/acre of spray solution was applied. Following spray applications, plants were returned to the greenhouse. Typically, experiments were blocked according to plant size, and a randomized complete block design (RCB) was used.\nIn a greenhouse study conducted in Long Grove, Ill., corn plants were sprayed at V3 stage with solutions containing a non-ionic surfactant (0.25%, v/v) at 30 gallons of spray solution/acre and growth was followed for nine days.\nSynergy was determined using the following formula, in which a synergy factor is calculated by the Abbott method: % Cexp=A+B−(AB/100), here % Cexp is the expected efficacy and “in which A and B are the increase in growth (or resistance to stress) levels given by the single [plant growth regulators]. If the ratio between the experimentally observed efficacy of the mixture Cobs and the expected efficacy of the mixture is greater than 1, synergistic interactions are present in the mixture” (Gisi, Synergistic Interaction of Fungicides in Mixtures, The American Phytopathological Society, 86:11, 1273-1279, 1996).\nBased on a conservative approach, synergy was determined to be present at ratios of ≥1.10. When grown under non-stressed conditions, GA3 growth was synergized by the addition of 3,000 mg/liter glycine betaine (“GB”), with a synergy factor of 1.65 for growth and 1.68 for growth rate while dry weight/plant was not synergistic with a synergy factor of 0.95."}, "greenhouse-grown maize": {"tested_on": "greenhouse-grown maize", "test": "Leaf chlorophyll by SPAD meter, GA3 dose +/- GB", "conditions": "without or with GB 10000 mg/liter", "description": "In the same study, leaf chlorophyll was monitored by measurements with a SPAD meter (Minolta Model 502; Ramsey, N.J.). In this study, the chlorophyll level in the most recently fully-expanded leaf was measured at five different points and the results averaged."}, "potted corn plants [1]": {"tested_on": "potted corn plants", "test": "Chronic drought stress greenhouse study, potted corn, 14 days", "conditions": "20 Percent Volumetric Water Content, 120 mg/liter GA3, 3000 mg/liter GB, n = 5", "description": "In drought stress studies, corn plants were sprayed at the V4 stage with solutions containing a non-ionic surfactant (0.25%, v/v) at 30 gallons of spray solution/acre and growth was determined by change in height from time of treatment or fresh and dry shoot weight measurements 14 days later.\nIn greenhouse drought stress studies, corn plants were treated and subsequently watered with an automated irrigation system that maintained the soil moisture in the pots at 45% or 20% volumetric water content (“VWC”). Plants set to 20% after treatment took about 4 days without the automated system adding water to those pots to reach 20% VWC and then the automated system added water as needed to maintain 20% VWC. Total soil moisture capacity was 45% VWC and 20% VWC represented drought stress conditions. This would be considered chronic stress, as a lower level of VWC was maintained throughout the experiment after treatment."}, "potted corn plants [2]": {"tested_on": "potted corn plants", "test": "Acute drought stress greenhouse study, potted corn, 7 and 14 days", "description": "In a separate acute drought stress greenhouse study conducted in Long Grove, Ill., corn plants were sprayed at V4 stage with solutions containing a non-ionic surfactant (0.25%, v/v) at 30 gallons of spray solution/acre and growth was determined by shoot height increase 7 and 14 days later. After treatment corn plants were not watered with the exception of one treatment of control (aqueous surfactant solution) that were watered as needed (well-watered control)."}, "corn [3]": {"tested_on": "corn", "test": "Field study Woodstock, Ill. 2014, corn growth", "description": "A field study was conducted at Woodstock, Ill. in 2014. Seeds of a central corn belt hybrid with 111 days to maturity were sown on May 20, 2014. Plants were sprayed at V4 with solutions containing a non-ionic surfactant (0.25%, v/v) at 15 gallons of spray solution/acre. Growth was followed by measuring shoot height in centimeters for 60 plants in each replicate at 7 and 14 days post spraying."}, "corn [4]": {"tested_on": "corn", "test": "Field study Woodstock, IL 2015, height, ear counts and yield", "description": "A field study was conducted at Woodstock, Ill. Seeds of a central corn belt variety with 103 days to maturity were sown and plants were sprayed at V5 with solutions containing a non-ionic surfactant (0.25%, v/v) at 15 gallons of spray solution/acre. Growth was followed by measuring shoot heights in centimeters 50 plants in each replicate at 7 and 13 days post-spraying. The number of kernels per kernel-row (average kernel number) as well as the number of kernel-rows (average row number) per ear was counted for 50 plants in each replicate 7 days before harvest. The harvest grain yield was corrected to 15% moisture."}, "hybrid corn": {"tested_on": "hybrid corn", "test": "Corn trial Arcadia, IA 2015, yield", "conditions": "field; spray at V7; GA3 120 mg/liter, GB 10000 mg/liter, (S)-ABA 9 mg/liter", "source_text": "In a corn trial conducted in Arcadia, Iowa, hybrid corn was sown Apr. 30, 2015 and sprayed at V7 with solutions containing a non-ionic surfactant (0.25%, v/v) at 15 gallons of spray volume."}, "[5]": {"conditions": "acute drought stressed, 120 ppm GA3, 3000 ppm GB, spray at V4"}, "[6]": {"conditions": "field, spray at V4, GA3 120 mg/liter, GB 10,000 mg/liter"}, "[7]": {"conditions": "field, spray at V5, GA3 120 mg/liter, GB 10000 mg/liter, (S)-ABA 9 mg/liter"}},
  "data": [
    {"smiles": "C=C1C[C@]23C[C@@]1(O)CC[C@H]2[C@@]12C=C[C@H](O)[C@@](C)(C(=O)O1)[C@H]2[C@@H]3C(=O)O", "note": "[GA3, gibberellic acid]", "values": [
      {"measurement": "Dry Weight/Plant", "setting": "corn plants", "value": 2.92, "unit": "g"},
      {"measurement": "Growth Rate", "setting": "corn plants", "value": 4.76, "unit": "cm/day"},
      {"measurement": "Growth over 9 days", "setting": "corn plants", "value": 42.9, "unit": "cm"},
      {"measurement": "Chlorophyll (SPAD reading) 14 days", "setting": "greenhouse-grown maize; GA3 30 mg/liter", "value": 33.1, "unit": "SPAD reading"},
      {"measurement": "Chlorophyll (SPAD reading) 14 days", "setting": "greenhouse-grown maize; GA3 60 mg/liter", "value": 32.9, "unit": "SPAD reading"},
      {"measurement": "Chlorophyll (SPAD reading) 14 days", "setting": "greenhouse-grown maize; GA3 120 mg/liter", "value": 31.6, "unit": "SPAD reading"},
      {"measurement": "Chlorophyll (SPAD reading) 14 days", "setting": "greenhouse-grown maize; GA3 240 mg/liter", "value": 31.1, "unit": "SPAD reading"},
      {"measurement": "Percent Dry Weight of Drought Stressed Control", "setting": "potted corn plants [1]", "value": 103.32, "unit": "%"},
      {"measurement": "Percent Fresh Weight of Drought Stressed Control", "setting": "potted corn plants [1]", "value": 106.11, "unit": "%"},
      {"measurement": "Shoot Growth 7 days after treatment as Percent Increase as compared to Drought Stressed Control", "setting": "potted corn plants [2]; [5]", "value": 116.9, "unit": "%"},
      {"measurement": "Shoot Growth 14 days after treatment as Percent Increase as compared to Drought Stressed Control", "setting": "potted corn plants [2]; [5]", "value": 118.7, "unit": "%"},
      {"measurement": "increased growth under drought as compared to controls", "setting": "potted corn plants [2]; at 7 days", "value": 16.9, "unit": "%"},
      {"measurement": "increased growth under drought as compared to controls", "setting": "potted corn plants [2]; at 14 days", "value": 18.7, "unit": "%"},
      {"measurement": "Growth Rate from 7-14 days", "setting": "corn [3]; [6]", "value": 4.89, "unit": "cm/day"},
      {"measurement": "Height at 7 days post spray", "setting": "corn [3]; [6]", "value": 68.2, "unit": "centimeters"},
      {"measurement": "Height at 14 days post spray", "setting": "corn [3]; [6]", "value": 102.4, "unit": "centimeters"},
      {"measurement": "growth increase over the control plants (surfactant alone)", "setting": "corn [3]; one week after treatment application", "value": 6.9, "unit": "%"},
      {"measurement": "Average row number per ear", "setting": "corn [4]; counted 7 days before harvest", "value": 16.8},
      {"measurement": "Height at 7 days post spray", "setting": "corn [4]; [7]", "value": 69.6, "unit": "cm"},
      {"measurement": "Height at 13 days post spray", "setting": "corn [4]; [7]", "value": 88.6, "unit": "cm"},
      {"measurement": "Yield", "setting": "corn [4]; grain yield corrected to 15% moisture", "value": 222.8, "unit": "bu/acre"},
      {"measurement": "Yield", "setting": "hybrid corn", "value": 185.8, "unit": "bu/acre"}
    ]}
  ]
}
